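Where inhibition never reached the appropriate level, the endpoint shown equals the highest concentration tested. Otherwise, values were interpolated linearly from a five-concentration, 48-hour dose response in 96-well plates. At the TGI there is no net growth.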
Tests used:
Assay in all cases: inhibition of tumour cell growth, NCI panel, 48 h
[1] = test system: 786-0 renal
[2] = test system: A549 NSCLC
[3] = test system: ACHN renal
[4] = test system: BT-549 breast
[5] = test system: CAKI-1 renal
[6] = test system: CCRF-CEM leukemia
[7] = test system: COLO 205 colon
[8] = test system: DU-145 prostate
[9] = test system: EKVX NSCLC
[10] = test system: HCC-2998 colon
[11] = test system: HCT-116 colon
[12] = test system: HCT-15 colon
[13] = test system: HL-60(TB) leukemia
[14] = test system: HOP-62 NSCLC
[15] = test system: HS 578T breast
[16] = test system: HT29 colon
[17] = test system: IGROV1 ovarian
[18] = test system: K-562 leukemia
[19] = test system: KM12 colon
[20] = test system: LOX IMVI melanoma
[21] = test system: M14 melanoma
[22] = test system: MALME-3M melanoma
[23] = test system: MCF7 breast
[24] = test system: MDA-MB-231 breast
[25] = test system: MOLT-4 leukemia
[26] = test system: NCI-H226 lung
[27] = test system: NCI-H23 lung
[28] = test system: NCI-H460 lung
[29] = test system: NCI-H522 lung
[30] = test system: NCI/ADR-RES ovarian
[31] = test system: OVCAR-3 ovarian
[32] = test system: OVCAR-4 ovarian
[33] = test system: OVCAR-5 ovarian
[34] = test system: OVCAR-8 ovarian
[35] = test system: PC-3 prostate
[36] = test system: RXF 393 renal
[37] = test system: SF-268 CNS
[38] = test system: SF-295 CNS
[39] = test system: SF-539 CNS
[40] = test system: SK-MEL-2 melanoma
[41] = test system: SK-MEL-28 melanoma
[42] = test system: SK-MEL-5 melanoma
[43] = test system: SN12C renal
[44] = test system: SNB-19 CNS
[45] = test system: SNB-75 CNS
[46] = test system: SR leukemia
[47] = test system: SW-620 colon
[48] = test system: TK-10 renal
[49] = test system: U251 CNS
[50] = test system: UACC-257 melanoma
[51] = test system: UACC-62 melanoma
[52] = test system: UO-31 renal
[53] = test system: A498 renal
[54] = test system: HOP-92 NSCLC
[55] = test system: MDA-MB-435
[56] = test system: RPMI-8226 leukemia
[57] = test system: SK-OV-3 ovarian
[58] = test system: T-47D breast

C[n+]1c2ccc(Cl)cc2nc2cc(-c3ccccc3)ccc21
TGI [1]: > 100 µM | TGI [2]: 47.7 µM | TGI [3]: 39.7 µM | TGI [4]: 25.5 µM | TGI [5]: 37.7 µM | TGI [6]: > 100 µM | TGI [7]: 16 µM | TGI [8]: 50.8 µM | TGI [9]: 29.9 µM | TGI [10]: 31.7 µM | TGI [11]: > 100 µM | TGI [12]: 39 µM | TGI [13]: 10.7 µM | TGI [14]: > 100 µM | TGI [15]: 65 µM | TGI [16]: > 100 µM | TGI [17]: 35.4 µM | TGI [18]: 66.8 µM | TGI [19]: 33.7 µM | TGI [20]: > 100 µM | TGI [21]: 27.7 µM | TGI [22]: 40.4 µM | TGI [23]: 4.52 µM | TGI [24]: 44 µM | TGI [25]: 5.19 µM | TGI [26]: 44.2 µM | TGI [27]: 23.2 µM | TGI [28]: 67.3 µM | TGI [29]: 37.9 µM | TGI [30]: > 100 µM | TGI [31]: 6.44 µM | TGI [32]: 40.5 µM | TGI [33]: 55.5 µM | TGI [34]: 16 µM | TGI [35]: 47.3 µM | TGI [36]: 55.2 µM | TGI [37]: 35.5 µM | TGI [38]: 11.5 µM | TGI [39]: 34 µM | TGI [40]: 46.2 µM | TGI [41]: 43.8 µM | TGI [42]: 24.3 µM | TGI [43]: 25.1 µM | TGI [44]: 9.59 µM | TGI [45]: 80.1 µM | TGI [46]: 9.14 µM | TGI [47]: > 100 µM | TGI [48]: 43.2 µM | TGI [49]: > 100 µM | TGI [50]: 32.9 µM | TGI [51]: 43.8 µM | TGI [52]: 48.7 µM

COc1cc(C2C3C=CC=C4CC=CC(=C43)C3CCC(=O)N32)cc(OC)c1OC (centres undefined)
TGI [1]: > 100 µM | TGI [53]: > 100 µM | TGI [2]: > 100 µM | TGI [3]: > 100 µM | TGI [8]: > 100 µM | TGI [9]: > 100 µM | TGI [11]: > 100 µM | TGI [12]: > 100 µM | TGI [13]: > 100 µM | TGI [14]: > 100 µM | TGI [54]: > 100 µM | TGI [16]: > 100 µM | TGI [17]: > 100 µM | TGI [18]: > 100 µM | TGI [19]: > 100 µM | TGI [20]: > 100 µM | TGI [21]: > 100 µM | TGI [23]: > 100 µM | TGI [24]: > 100 µM | TGI [55]: > 100 µM | TGI [25]: > 100 µM | TGI [26]: 36.3 µM | TGI [28]: > 100 µM | TGI [29]: > 100 µM | TGI [30]: 69.8 µM | TGI [31]: > 100 µM | TGI [33]: > 100 µM | TGI [34]: > 100 µM | TGI [35]: > 100 µM | TGI [56]: > 100 µM | TGI [37]: > 100 µM | TGI [38]: > 100 µM | TGI [39]: > 100 µM | TGI [40]: > 100 µM | TGI [41]: > 100 µM | TGI [57]: > 100 µM | TGI [43]: > 100 µM | TGI [44]: > 100 µM | TGI [45]: > 100 µM | TGI [46]: > 100 µM | TGI [47]: > 100 µM | TGI [58]: > 100 µM | TGI [48]: > 100 µM | TGI [49]: > 100 µM | TGI [50]: > 100 µM | TGI [51]: > 100 µM | TGI [52]: > 100 µM

— PubChem BioAssay (NCI)
